Laboratory results reported in patent US10640765B2 (priority 2016, dated 2020).

Experiments:
[1] = tested on: vaccinia virus (v7.5/tk viral DNA) in BSC-1 cells; assay type: cell-based
vaccinia virus = assay type: cell-based

Compound: CO[C@H]1/C=C/O[C@@]2(C)Oc3c(C)c(O)c4c(O)c(c(/C=N/N5CCN(C)CC5)c(O)c4c3C2=O)NC(=O)/C(C)=C\C=C\[C@H](C)[C@H](O)[C@@H](C)[C@@H](O)[C@@H](C)[C@H](OC(C)=O)[C@@H]1C [Rifampicin, rifampicin]
- efficiency (number of recombinant clones) [1]: 113,148 clones/100 mm^2 plate
- overall efficiency of clone production with rifampicin versus without rifampicin (vaccinia virus): approximately 10 fold
